Measurements from US12338204B2, “Substituted bisphenylalkylurea compounds and methods of treating breast cancer” (Texas Tech University System, priority 2018, dated 2025).

Tests used:
[1] = system: TNBCs and their metastases; experiment: Stopping the growth of TNBCs and their metastases; conditions: statement in words, no data shown
[2] = Ability to cross the blood-brain-barrier; conditions: statement in words, no data shown

COc1ccc(C(CCCCNC(=O)Nc2ccc(Cl)c([N+](=O)[O-])c2)c2ccc(OC)cc2)cc1 [1-(5,5-bis(4-methoxyphenyl)pentyl)-3-(4-chloro-3-nitrophenyl)urea]
stopping the growth of TNBCs and their metastases [1]: effective in stopping the growth of TNBCs and their metastases | ability to cross the blood-brain-barrier (BBB) [2]: shows the ability to cross the blood-brain-barrier
